Test systems include A549; ACHN; CAKI-1; COLO 205; HCC 2998; HOP-62; HOP-92; HT-29; MDA-MB-231; NCI-H226; NCI-H460; NCI/ADR-RES; PC-3; SF-539; SN12C; SW-620; T47D; MOLT-4.
What all share (assay): NCI-60 cell line screen, 48 h

Each structure is given as a SMILES string.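 Test compounds were applied to cells in 96-well plates for 48 hours at 5 doses. Here, GI50 denotes the concentration required for 50% inhibition of growth.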 Activity calls are given as the source filed them. No stated cut-off is given here; in the data, active = GI50 up to about 1.1 µM and inactive = higher.

On to `Cc1c2cccc-2c2cc(O)c3ccccc3c2n1-c1ccc(N(C)C)cc1`, for which the GI50 with A549 is 14.6 µM (inactive); in the experiment with ACHN, 12.4 µM (inactive); in the experiment with CAKI-1 it was 16 µM (inactive); with COLO 205, 16.1 µM (inactive); in the experiment with HCC 2998, 13 µM (inactive); with HOP-62 it was 12.2 µM (inactive). Further, the GI50 is 2.51 µM (inactive) with HOP-92; 16.7 µM (inactive) in the experiment on HT-29; 3.01 µM (inactive) in the experiment on MDA-MB-231; 9.68 µM (inactive) with NCI-H226; 15.5 µM (inactive) in the experiment on NCI-H460; 14.6 µM (inactive) with NCI/ADR-RES. The GI50 in the experiment with PC-3 is 11.7 µM (inactive); in the experiment on SF-539 it was 14.3 µM (inactive); with SN12C it was 16.1 µM (inactive); in the experiment with SW-620 it was 20.7 µM (inactive); with T47D, 0.304 µM (active).
Turning to `Nc1nnnn1NC(=O)NCCCl`, the GI50 with A549, in the experiment on ACHN, in the experiment with CAKI-1, in the experiment on COLO 205, with HCC 2998 and in the experiment with HOP-62 was > 10 µM (inactive) each time. Also, the GI50 with HOP-92, with HT-29, with MDA-MB-231, in the experiment on MOLT-4, in the experiment with NCI-H226 and with NCI-H460 was > 10 µM (inactive) each time. Also, the GI50 in the experiment with NCI/ADR-RES, in the experiment on PC-3, with SF-539, in the experiment with SN12C, in the experiment with SW-620 and in the experiment with T47D was > 10 µM (inactive) in each case.
`O=C(NCCNCCNCCNC(=O)c1cc(-c2ccccc2)nc2ccccc12)c1cc(-c2ccccc2)nc2ccccc12`: the GI50 with A549 was 5.83 µM (inactive); in the experiment with ACHN, 2.13 µM (inactive); in the experiment with CAKI-1, 15.3 µM (inactive); in the experiment on COLO 205 it was 1.99 µM (inactive); in the experiment with HCC 2998 it was 1.71 µM (inactive); with HOP-62, 2.51 µM (inactive). The GI50 with HOP-92 was 1.92 µM (inactive); in the experiment on HT-29, 1.7 µM (inactive); in the experiment on MDA-MB-231 it was 2.96 µM (inactive); in the experiment on MOLT-4 it was 1.95 µM (inactive); in the experiment on NCI-H226 it was 2.64 µM (inactive); in the experiment on NCI-H460, 1.79 µM (inactive). For the same molecule, the GI50 with NCI/ADR-RES was 13.4 µM (inactive); in the experiment with PC-3, 3.48 µM (inactive); in the experiment with SF-539 it was 2.08 µM (inactive); in the experiment on SN12C, 3.07 µM (inactive); in the experiment on SW-620 it was 1.83 µM (inactive); with T47D it was 2.68 µM (inactive).
With `O=C(CC(O)(C(F)(F)Cl)C(F)(F)Cl)CC(O)(C(F)(F)Cl)C(F)(F)Cl`, the GI50 in the experiment on A549 was 1.73 µM (inactive); in the experiment with ACHN, 0.927 µM (active); in the experiment on CAKI-1 it was 2 µM (inactive); in the experiment with COLO 205 it was 1.63 µM (inactive); with HCC 2998, 1.74 µM (inactive); with HOP-62, 1.98 µM (inactive). Moreover, the GI50 was 0.75 µM (active) in the experiment with HOP-92; 1.65 µM (inactive) with HT-29; 2.05 µM (inactive) in the experiment on MDA-MB-231; 2.14 µM (inactive) in the experiment on MOLT-4; 1.33 µM (inactive) in the experiment with NCI-H226; 1.24 µM (inactive) in the experiment with NCI-H460. Also, the GI50 is 2.06 µM (inactive) in the experiment on NCI/ADR-RES; 1.11 µM (active) in the experiment on PC-3; 2.95 µM (inactive) in the experiment on SF-539; 4.65 µM (inactive) in the experiment on SN12C; 3.36 µM (inactive) with SW-620; 0.647 µM (active) in the experiment with T47D.
On to `Cc1ccc(S(=O)(=O)NC(=O)NNc2ccc(F)cc2)cc1`, for which the GI50 with A549, in the experiment with ACHN, with CAKI-1, in the experiment with COLO 205, in the experiment on HCC 2998 and in the experiment with HOP-62 was > 100 µM (inactive) in each case. Also, the GI50 in the experiment with HOP-92, in the experiment on HT-29, in the experiment on MDA-MB-231, in the experiment on MOLT-4, in the experiment on NCI-H226 and in the experiment on NCI-H460 was > 100 µM (inactive) each time. The GI50 in the experiment on NCI/ADR-RES was > 44 µM (inactive); in the experiment with PC-3, > 100 µM (inactive); with SF-539 it was > 100 µM (inactive); with SN12C it was > 100 µM (inactive); in the experiment on SW-620, > 100 µM (inactive); with T47D it was > 100 µM (inactive).
On to `O=C(O)[C@H](c1ccccc1)[C@@H](C(=O)O)c1ccccc1`, for which the GI50 in the experiment with A549, in the experiment with ACHN, with CAKI-1, in the experiment with COLO 205, in the experiment on HCC 2998 and in the experiment with HOP-62 was > 100 µM (inactive) in each case. For the same molecule, the GI50 with HOP-92, in the experiment on HT-29, with MDA-MB-231, in the experiment on MOLT-4, in the experiment on NCI-H226 and in the experiment with NCI-H460 was > 100 µM (inactive) throughout. Further, the GI50 in the experiment with NCI/ADR-RES, in the experiment with PC-3, in the experiment with SF-539, in the experiment on SN12C, in the experiment on SW-620 and with T47D was > 100 µM (inactive) each time.
For `O=c1oc2ccc3ccccc3c2cc1-c1nc2ccccc2s1`, the GI50 was > 23.1 µM (inactive) in the experiment on A549; > 100 µM (inactive) with ACHN; > 100 µM (inactive) with CAKI-1; > 100 µM (inactive) with COLO 205; > 100 µM (inactive) with HCC 2998; > 100 µM (inactive) with HOP-62. In addition, the GI50 with HOP-92, in the experiment on HT-29, in the experiment with MDA-MB-231, with NCI-H226, with NCI-H460 and with NCI/ADR-RES was > 100 µM (inactive) in each case. The GI50 in the experiment with PC-3 was > 100 µM (inactive); with SF-539, > 100 µM (inactive); in the experiment on SN12C, > 100 µM (inactive); in the experiment with SW-620 it was > 100 µM (inactive); in the experiment on T47D it was > 66.7 µM (inactive).
Regarding `CC(C)(Cl)C(Cl)CC/C(CBr)=C(\Cl)CCl` (stereo unspecified), the GI50 in the experiment on A549 was 18 µM (inactive); with ACHN it was 14.9 µM (inactive); in the experiment with CAKI-1, 5.09 µM (inactive); in the experiment with COLO 205 it was 4.89 µM (inactive); in the experiment with HCC 2998, 14.4 µM (inactive); with HOP-62, 11.8 µM (inactive). Moreover, the GI50 is 10.4 µM (inactive) in the experiment on HOP-92; 2.82 µM (inactive) in the experiment with HT-29; 2.57 µM (inactive) in the experiment with MDA-MB-231; 0.491 µM (active) with MOLT-4; 4.69 µM (inactive) in the experiment with NCI-H226; 12.7 µM (inactive) in the experiment with NCI-H460. Moreover, the GI50 with NCI/ADR-RES was 5.81 µM (inactive); in the experiment with PC-3 it was 7.31 µM (inactive); in the experiment on SF-539, 4.86 µM (inactive); in the experiment on SN12C, 3.52 µM (inactive); in the experiment with SW-620, 1.96 µM (inactive); in the experiment on T47D, 1.82 µM (inactive).
Take `CC(C)c1cccc(C(C)C)c1NC(=O)/C(CC(=O)CC(c1ccccc1)c1c(O)c2ccccc2oc1=O)=N/O` (stereo unspecified): the GI50 in the experiment with A549, with ACHN, with CAKI-1, in the experiment on COLO 205, with HCC 2998 and in the experiment on HOP-62 was > 100 µM (inactive) throughout. For the same molecule, the GI50 in the experiment with HOP-92, with HT-29, with MDA-MB-231, in the experiment on MOLT-4, with NCI-H226 and with NCI-H460 was > 100 µM (inactive) in each case. For the same molecule, the GI50 with NCI/ADR-RES, in the experiment with PC-3, in the experiment on SF-539, in the experiment on SN12C, in the experiment with SW-620 and with T47D was > 100 µM (inactive) each time.
Take `CN1C(c2ccccc2)=CC(=O)C(O)=C(c2ccccc2)S1(=O)=O`: the GI50 in the experiment on A549, in the experiment with ACHN, in the experiment on CAKI-1, with COLO 205, with HCC 2998 and in the experiment on HOP-62 was > 100 µM (inactive) each time. Besides, the GI50 in the experiment with HOP-92, in the experiment on HT-29, in the experiment on MDA-MB-231, with MOLT-4, in the experiment with NCI-H226 and in the experiment on NCI-H460 was > 100 µM (inactive) throughout. Besides, the GI50 in the experiment on NCI/ADR-RES, in the experiment on PC-3, in the experiment on SF-539, in the experiment on SN12C, with SW-620 and with T47D was > 100 µM (inactive) each time.
Regarding `c1cc2c3ccsc3c3sccc3c2s1`, the GI50 is > 100 µM (inactive) in the experiment on A549; > 100 µM (inactive) in the experiment with ACHN; > 100 µM (inactive) in the experiment on CAKI-1; > 100 µM (inactive) with COLO 205; 36.4 µM (inactive) in the experiment with HCC 2998; 21.4 µM (inactive) in the experiment with HOP-62. Besides, the GI50 in the experiment with HOP-92 was > 100 µM (inactive); in the experiment on HT-29 it was 99.5 µM (inactive); in the experiment with MDA-MB-231, > 100 µM (inactive); in the experiment with MOLT-4, 55.7 µM (inactive); in the experiment on NCI-H226 it was 10 µM (inactive); with NCI-H460 it was > 100 µM (inactive). The GI50 with NCI/ADR-RES was > 100 µM (inactive); with PC-3, > 100 µM (inactive); in the experiment on SF-539, 90.8 µM (inactive); in the experiment with SN12C it was > 100 µM (inactive); in the experiment on SW-620 it was > 100 µM (inactive); in the experiment on T47D it was > 100 µM (inactive).

These data come from ChEMBL document CHEMBL1201862, “PubChem BioAssay data set” (2004).
